Laboratory results from PubChem BioAssay (NCI).
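1) Cells in 96-well plates. 2) Compound, 48 h, 5 concentrations. 3) Linear interpolation between surrounding doses. 4) Unreached endpoint = highest concentration. TGI denotes the concentration required for complete inhibition of growth.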

What was measured:
Experiment in all cases: growth of human tumour cells (NCI), 48 h
[1] = system: ACHN renal
[2] = system: HCT-116 colon
[3] = system: HCT-15 colon
[4] = system: LOX IMVI melanoma
[5] = system: M14 melanoma
[6] = system: MALME-3M melanoma
[7] = system: MCF7 breast
[8] = system: MOLT-4 leukemia
[9] = system: NCI-H522 lung
[10] = system: PC-3 prostate
[11] = system: RXF 393 renal
[12] = system: SK-MEL-5 melanoma
[13] = system: T-47D breast

Row | Structure (SMILES) | TGI [1] [µM] | TGI [2] [µM] | TGI [3] [µM] | TGI [4] [µM] | TGI [5] [µM] | TGI [6] [µM] | TGI [7] [µM] | TGI [8] [µM] | TGI [9] [µM] | TGI [10] [µM] | TGI [11] [µM] | TGI [12] [µM] | TGI [13] [µM]
1 | COc1cc2c(cc1OC)-c1cc3ccccc3c(=O)n1CCC2 | > 100 | > 38.6 | 27.5 | 13.7 | > 59.1 | 98.1 | > 89.5 | 10.4 | 74.9 | 62.7 | 57.5 | 28 | 68.9
2 | Cc1ccc(S(=O)(=O)C2=c3ncccc3=C3C(=O)c4ccccc4C(=O)C32)cc1 (stereo not given) | > 95.8 | > 100 | > 100 | > 100 | > 100 | > 100 | > 100 | > 100 | 85.3 | > 100 | > 31.6 | > 15 | > 100
3 | CC(=O)CN=C(C)NNc1ccc([N+](=O)[O-])cc1[N+](=O)[O-] | > 100 | > 100 | > 100 | > 100 | > 100 | > 100 | > 100 | > 100 | > 100 | > 100 | > 100 | > 100 | > 100
4 | CC1C(c2ccccc2O)c2cc3c(cc2OC1N1CCCC1)OCO3 (stereo not given) | > 100 | 43.1 | > 100 | 44.3 | 36.8 | 80.2 | 67.4 | 65 | 70.3 | 98.8 | 31.8 | > 100 | > 100
5 | CC(C)C1OCC(CO)CO1 (stereo not given) | > 100 | > 100 | > 100 | > 100 | > 100 | > 100 | > 100 | > 100 | > 100 | > 100 | > 100 | > 100 | > 100
6 | COc1cc(CNC(=O)CCCCCCCC/C=C/Br)ccc1O | > 10 | > 10 | > 10 | > 10 | > 10 | > 10 | > 10 | > 10 | > 10 | > 10 | > 10 | > 10 | > 10
7 | CC(C)(C)SC1=CCC[C@@H](P(=O)(c2ccccc2)c2ccccc2)[C@@H]2CCC[C@@H]12 | 30.6 | 27.3 | 33 | 33.5 | 29.5 | 36.3 | 31.1 | 38.1 | 31.3 | 28.6 | 29.9 | 32.8 | 33.3
8 | COc1cc(Cn2c3c(c4cc(O)ccc42)C(=O)c2ccccc2C3=O)cc(OC)c1 | 7.61 | 12.7 | > 100 | > 100 | 67.5 | 43.8 | 50.6 | 90.9 | 12.5 | 11.8 | 35.5 | 18.7 | 32.1
9 | CCOC(=O)Cn1nc2ccc(Nc3nc4ccccc4nc3C(=O)OCC)cc2n1 | > 100 | > 100 | > 100 | > 100 | > 100 | > 100 | > 100 | > 100 | > 100 | > 100 | 58.2 | > 100 | > 100
10 | Cc1ccc(C2SC(N)=Nc3c2c(C)nn3C(=O)c2ccncc2)cc1 (stereo not given) | > 10 | > 10 | > 10 | > 10 | > 10 | > 10 | > 10 | > 10 | > 10 | > 10 | > 10 | > 10 | > 10
11 | COC(=O)[C@]1(c2cc3ccccc3[nH]2)CC2CN(CC(=O)N(C)OC)C1C1OC(C)(C)OC21 (stereo not given in full) | > 100 | > 100 | > 100 | > 100 | > 100 | > 100 | > 100 | 49.9 | > 100 | > 100 | > 100 | > 100 | > 100
12 | CS(=O)(=O)C(=Cc1ccccc1Cl)S(C)(=O)=O | > 100 | > 100 | > 100 | > 100 | > 100 | > 100 | > 100 | > 100 | > 100 | > 100 | > 100 | > 100 | > 100
13 | O=[N+]([O-])C(=C1Nc2ccccc2N1)C(Cl)=C(Cl)Cl | > 100 | > 100 | > 100 | > 100 | > 100 | > 100 | > 100 | 56.3 | > 100 | > 100 | > 100 | > 100 | 77.7
14 | COC(=O)C(Cc1ccccc1)NS(=O)(=O)c1ccc(-c2c3nc(c(-c4ccc(S(=O)(=O)NC(Cc5ccccc5)C(=O)OC)cc4)c4ccc([nH]4)c(-c4ccc(S(=O)(=O)NC(Cc5ccccc5)C(=O)OC)cc4)c4nc(c(-c5ccc(S(=O)(=O)NC(Cc6ccccc6)C(=O)OC)cc5)c5ccc2[nH]5)C=C4)C=C3)cc1 (stereo not given) | > 100 | > 100 | > 100 | > 100 | > 100 | > 100 | > 100 | > 100 | > 100 | > 100 | > 100 | > 100 | > 100
15 | O=[N+]([O-])c1cc(Cl)ccc1S(=O)(=O)c1ccccc1 | > 100 | > 100 | > 100 | > 100 | > 100 | > 100 | > 100 | > 100 | > 100 | > 100 | > 100 | > 100 | > 100
16 | CCCNc1[nH]c(C(C)=O)c(N)c1C(=S)Nc1ccccc1 | > 100 | > 100 | > 100 | 63.4 | 36.8 | 83.9 | 45.4 | > 100 | > 100 | > 100 | 65.3 | 52.3 | > 100
17 | CC[n+]1[b-](C(C)(C)C)n(/N=C(\C)C(C)(C)C)[b-](C(C)(C)C)[n+]1CC | > 100 | > 100 | > 100 | > 100 | > 100 | > 100 | > 100 | > 100 | > 100 | > 100 | > 100 | > 100 | > 100
18 | CC(C)(C)OC(=O)C(C1NC(C(=O)O)C(C)(C)S1)N1C(=O)c2ccccc2C1=O (stereo not given) | > 100 | > 100 | > 100 | > 100 | > 100 | > 100 | > 100 | > 100 | > 100 | > 100 | > 100 | > 100 | > 100
19 | C[C@H](CCc1nc(C#N)c(N)o1)[C@H]1CC[C@H]2[C@@H]3[C@@H](O)CC4C[C@@H](O)CC[C@]4(C)[C@H]3C[C@@H](O)[C@]12C (stereo not given in full) | > 90 | 50 | > 93 | 29.2 | > 75.8 | 29.3 | > 95.4 | > 59.7 | 18.4 | 49.1 | 35.9 | 40.9 | 85.6
20 | COc1ccc(-c2nc3ccc(C)cc3o2)c(OC)c1 | > 100 | 35.8 | 58.8 | 31 | 35.7 | 42.1 | > 100 | 52.9 | 39.2 | 67.1 | 53.8 | 43.3 | > 96.1
21 | CC[C@H](CCCCC1CC[C@@H]2CC(=O)C[C@H]12)OC (stereo not given in full) | > 100 | > 100 | > 100 | > 100 | > 100 | > 100 | > 100 | > 100 | > 100 | > 100 | > 100 | > 100 | > 100
22 | CCCCNc1nc(SC)nc2nc[nH]c12 | > 100 | > 100 | > 100 | > 100 | > 100 | > 100 | > 100 | > 100 | > 100 | > 100 | > 100 | > 100 | > 100
23 | CNC(=O)N(CCC#N)CCN(CCN(C(=O)NC)c1ccccc1)C(=O)NC | > 100 | > 100 | > 100 | > 100 | > 100 | > 100 | > 100 | > 100 | > 100 | > 100 | > 100 | > 100 | > 100
24 | COC(=O)c1ccccc1CC1Cc2cc3c(cc2C1)CCC3 | > 100 | 83.1 | > 100 | 47.8 | 93.4 | 52 | > 100 | 38.8 | 91.6 | > 100 | 63.6 | 55.3 | > 100
25 | COc1cc2c[n+](C)c3c4ccccc4ccc3c2cc1OC | > 100 | > 67.7 | > 100 | 45 | 42.6 | 5.53 | > 100 | 20.6 | 5.57 | > 43.2 | 32.1 | 12.9 | 9.22
26 | O=C(O)/C(=C\c1ccccc1)Cc1ccccc1 | > 100 | > 100 | > 100 | > 100 | > 100 | > 100 | > 100 | > 100 | > 100 | > 100 | > 100 | > 100 | > 100
27 | CN1N=C(c2ccncc2)OC1c1ccc(Cl)c(Cl)c1 (stereo not given) | > 100 | > 100 | > 100 | > 100 | > 100 | > 100 | > 100 | > 100 | > 100 | > 100 | > 100 | > 100 | > 100
28 | O=C1c2c(Br)sc(Br)c2[C@H]2NC(=S)O[C@@H]12 | 31.6 | 24.5 | 16.6 | 30.5 | 30.5 | 29.8 | 31.8 | 5.31 | 3.74 | 27.7 | 27.9 | 29.7 | 69.3
29 | Cn1ncc2c(NCCc3ccccc3)nc(Cl)nc21 | > 100 | > 100 | > 100 | > 100 | 39.7 | > 100 | > 100 | 39.9 | > 100 | 71.8 | > 100 | 38.6 | 79.3
30 | COc1cc(OC)c(/C=N/N=C(\N)NO)c(OC)c1 | > 100 | > 100 | > 100 | > 100 | > 100 | > 100 | > 100 | > 100 | > 100 | > 100 | > 100 | > 100 | > 100
